Experimental findings from patent US9440956B2, “Indole, indazole and benzimidazole arylamides as P2X3 and P2X2/3 antagonists” (Roche Palo Alto LLC, priority 2010, dated 2016) are described below.

One assay concerns the target T1, rat P2X3 receptor (Rattus norvegicus, UniProt P49654).
T1 construct: expressed in transfected cells; host or cells: CHO-K1
T1 sequence (P49654 1-397): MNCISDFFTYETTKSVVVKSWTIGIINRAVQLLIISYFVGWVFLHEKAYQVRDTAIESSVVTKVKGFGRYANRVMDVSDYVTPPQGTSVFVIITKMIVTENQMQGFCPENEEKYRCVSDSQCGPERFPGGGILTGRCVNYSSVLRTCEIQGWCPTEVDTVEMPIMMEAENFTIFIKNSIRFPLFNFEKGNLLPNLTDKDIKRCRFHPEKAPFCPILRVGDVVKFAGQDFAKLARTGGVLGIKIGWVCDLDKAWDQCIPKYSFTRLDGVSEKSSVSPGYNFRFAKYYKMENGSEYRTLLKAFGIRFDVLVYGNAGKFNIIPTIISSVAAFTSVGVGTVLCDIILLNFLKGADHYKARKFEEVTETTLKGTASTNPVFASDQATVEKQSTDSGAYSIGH
In words: P2X3 FLIPR (Fluorometric Imaging Plate Reader) assay. It is filed as cell-based. Conditions: CHO-K1 cells transfected with cloned rat P2X3; agonist α,β-meATP 1 μM; Fluo-3 calcium fluorescence. On the procedure: (§1) P2X3/P2X2/3 FLIPR (Fluorometric Imaging Plate Reader) Assay
(§2) CHO-K1 cells were transfected with cloned rat P2X3 or human P2X2/3 receptor subunits and passaged in flasks. 18-24 hours before the FLIPR experiment, cells were released from their flasks, centrifuged, and resuspended in nutrient medium at 2.5×10^5 cells/ml. The cells were aliquoted into black-walled 96-well plates at a density of 50,000 cells/well and incubated overnight in 5% CO2 at 37° C. On the day of the experiment, cells were washed in FLIPR buffer (calcium- and magnesium-free Hank's balanced salt solution, 10 mM HEPES, 2 mM CaCl2, 2.5 mM probenecid; FB). Each well received 100 μl FB and 100 μl of the fluorescent dye Fluo-3 AM [2 μM final conc.]. After a 1 hour dye loading incubation at 37° C., the cells were washed 4 times with FB, and a final 75 μl/well FB was left in each well.
(§3) Test compounds (dissolved in DMSO at 10 mM and serially diluted with FB) or vehicle were added to each well (25 μl of a 4× solution) and allowed to equilibrate for 20 minutes at room temperature. The plates were then placed in the FLIPR and a baseline fluorescence measurement (excitation at 488 nm and emission at 510-570 nm) was obtained for 10 seconds before a 100 μl/well agonist or vehicle addition. The agonist was a 2× solution of α,β-meATP producing a final concentration of 1 μM (P2X3) or 5 μM (P2X2/3). Fluorescence was measured for an additional 2 minutes at 1 second intervals after agonist addition. A final addition of ionomycin (5 μM, final concentration) was made to each well of the FLIPR test plate to establish cell viability and maximum fluorescence of dye-bound cytosolic calcium. Peak fluorescence in response to the addition of α,β-meATP (in the absence and presence of test compounds) was measured and inhibition curves generated using nonlinear regression. PPADS, a standard P2X antagonist, was used as a positive control.

The target in the next assay is T2, human P2X2/3 receptor (Homo sapiens, UniProt P56373+Q9UBL9).
T2 construct: expressed in transfected cells; host or cells: CHO-K1
T2 sequence (Q9UBL9 1-471): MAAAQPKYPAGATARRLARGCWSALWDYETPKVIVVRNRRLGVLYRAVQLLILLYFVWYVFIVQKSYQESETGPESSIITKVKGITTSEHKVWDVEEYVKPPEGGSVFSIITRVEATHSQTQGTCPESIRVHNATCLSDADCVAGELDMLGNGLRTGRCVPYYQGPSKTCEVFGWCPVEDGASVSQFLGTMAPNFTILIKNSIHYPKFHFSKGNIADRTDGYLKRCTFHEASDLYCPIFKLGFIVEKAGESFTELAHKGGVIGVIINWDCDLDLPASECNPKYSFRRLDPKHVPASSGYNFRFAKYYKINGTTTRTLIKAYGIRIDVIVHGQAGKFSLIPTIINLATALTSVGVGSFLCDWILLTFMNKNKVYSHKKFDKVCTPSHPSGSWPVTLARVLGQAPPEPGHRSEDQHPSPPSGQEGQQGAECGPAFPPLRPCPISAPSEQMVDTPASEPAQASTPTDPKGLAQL
T2 sequence (P56373 1-397): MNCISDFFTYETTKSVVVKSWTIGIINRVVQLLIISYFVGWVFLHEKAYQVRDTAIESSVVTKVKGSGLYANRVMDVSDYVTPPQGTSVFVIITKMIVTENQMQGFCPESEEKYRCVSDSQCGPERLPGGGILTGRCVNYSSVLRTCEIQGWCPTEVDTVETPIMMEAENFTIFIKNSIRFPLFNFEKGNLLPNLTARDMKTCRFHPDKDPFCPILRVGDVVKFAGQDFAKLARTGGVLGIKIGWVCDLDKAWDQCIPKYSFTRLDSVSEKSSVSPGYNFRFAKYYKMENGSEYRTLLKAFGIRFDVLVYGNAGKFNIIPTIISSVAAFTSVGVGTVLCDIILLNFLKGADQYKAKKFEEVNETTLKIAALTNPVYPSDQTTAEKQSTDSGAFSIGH
In words: P2X2/3 FLIPR (Fluorometric Imaging Plate Reader) assay. The assay is classed as cell-based. The settings on record: CHO-K1 cells transfected with human P2X2/3; agonist α,β-meATP 5 μM; Fluo-3 calcium fluorescence. On the procedure:
as §1, §2, §3

Consider `Cc1ccc(-c2cc(C(=O)NCc3cnc(C)cn3)cc3c2cnn3CC(F)(F)F)nc1` [Compound 12, 4-(5-Methyl-pyridin-2-yl)-1-(2,2,2-trifluoro-ethyl)-1H-indazole-6-carboxylic acid (5-methyl-pyrazin-2-ylmethyl)-amide], for which the “pKi P2X3” value at rat P2X3 receptor was found to be 6.52. Further, on human P2X2/3 receptor, the “pKi P2X2/3” value is listed as 5.7.

Take `Cc1ccc(-c2cc(C(=O)NCc3cnc(C)cn3)cc3c2cnn3C(C)C)nc1` [Compound 4, 1-Isopropyl-4-(5-methyl-pyridin-2-yl)-1H-indazole-6-carboxylic acid (5-methyl-pyrazin-2-ylmethyl)-amide]: the “pKi P2X3” value at rat P2X3 receptor worked out at 6.58. Also, the “pKi P2X2/3” value on human P2X2/3 receptor was found to be 4.92.

On to `Cc1ccc(-c2cc(C(=O)NCc3ccc(C)nn3)cc3c2cnn3CCC(C)C)nc1` [Compound 8, 1-(3-Methyl-butyl)-4-(5-methyl-pyridin-2-yl)-1H-indazole-6-carboxylic acid (6-methyl-pyridazin-3-ylmethyl)-amide], for which the “pKi P2X3” value at rat P2X3 receptor worked out at 7.66. Also, on human P2X2/3 receptor, the “pKi P2X2/3” value is 6.23.

As for `Cc1ccc(-n2ncc3c(-c4ccc(C)cn4)cc(C(=O)N[C@@H](C)CO)cc32)cc1` [Compound 17, 4-(5-Methyl-pyridin-2-yl)-1-p-tolyl-1H-indazole-6-carboxylic acid ((S)-2-hydroxy-1-methyl-ethyl)-amide], the “pKi P2X3” value at rat P2X3 receptor was 7.38. Besides, the “pKi P2X2/3” value at human P2X2/3 receptor is given as 4.97.

As to `Cc1ccc(-c2cc(C(=O)NCc3cnc(C)cn3)cc3c2cnn3-c2ccccc2)nc1` [Compound 14, 4-(5-Methyl-pyridin-2-yl)-1-phenyl-1H-indazole-6-carboxylic acid (5-methyl-pyrazin-2-ylmethyl)-amide], the “pKi P2X3” value on rat P2X3 receptor is recorded as 7.44. Besides, the “pKi P2X2/3” value at human P2X2/3 receptor is on record as 6.54.

As to `COCCn1ncc2c(-c3ccc(C)cn3)cc(C(=O)NCc3cnc(C)cn3)cc21` [Compound 6, 1-(2-Methoxy-ethyl)-4-(5-methyl-pyridin-2-yl)-1H-indazole-6-carboxylic acid (5-methyl-pyrazin-2-ylmethyl)-amide], the “pKi P2X3” value on rat P2X3 receptor is 5.51. Moreover, the “pKi P2X2/3” value on human P2X2/3 receptor stood at 5.
